Assay results reported in PubChem BioAssay (NCI).
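Each compound was tested at five concentrations against cells in 96-well plates for 48 hours. TGI marks complete inhibition of growth.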

Experiments:
Test in all cases: DTP human tumour cell line panel, 48 h
[1] = tested on: MALME-3M melanoma
[2] = tested on: NCI-H522 lung
[3] = tested on: OVCAR-5 ovarian
[4] = tested on: RPMI-8226 leukemia
[5] = tested on: BT-549 breast
[6] = tested on: SK-OV-3 ovarian
[7] = tested on: UO-31 renal
[8] = tested on: DU-145 prostate
[9] = tested on: HS 578T breast
[10] = tested on: A498 renal
[11] = tested on: SNB-19 CNS
[12] = tested on: MDA-MB-435
[13] = tested on: CAKI-1 renal
[14] = tested on: MOLT-4 leukemia
[15] = tested on: RXF 393 renal
[16] = tested on: HCT-15 colon
[17] = tested on: EKVX NSCLC
[18] = tested on: NCI-H23 lung
[19] = tested on: HOP-62 NSCLC
[20] = tested on: IGROV1 ovarian
[21] = tested on: TK-10 renal
[22] = tested on: SF-268 CNS
[23] = tested on: OVCAR-3 ovarian
[24] = tested on: SN12C renal
[25] = tested on: SW-620 colon
[26] = tested on: T-47D breast
[27] = tested on: A549 NSCLC
[28] = tested on: SK-MEL-2 melanoma
[29] = tested on: SF-295 CNS
[30] = tested on: M14 melanoma
[31] = tested on: NCI/ADR-RES ovarian
[32] = tested on: HT29 colon
[33] = tested on: SK-MEL-28 melanoma
[34] = tested on: 786-0 renal
[35] = tested on: HOP-92 NSCLC
[36] = tested on: MDA-MB-231 breast
[37] = tested on: HCT-116 colon
[38] = tested on: K-562 leukemia
[39] = tested on: ACHN renal
[40] = tested on: SK-MEL-5 melanoma
[41] = tested on: SNB-75 CNS
[42] = tested on: MCF7 breast
[43] = tested on: LOX IMVI melanoma
[44] = tested on: UACC-62 melanoma
[45] = tested on: COLO 205 colon
[46] = tested on: SR leukemia
[47] = tested on: NCI-H226 lung
[48] = tested on: PC-3 prostate
[49] = tested on: UACC-257 melanoma
[50] = tested on: U251 CNS
[51] = tested on: OVCAR-8 ovarian
[52] = tested on: MDA-N
[53] = tested on: OVCAR-4 ovarian
[54] = tested on: KM12 colon
[55] = tested on: NCI-H460 lung
[56] = tested on: HCC-2998 colon
[57] = tested on: SF-539 CNS
[58] = tested on: CCRF-CEM leukemia
[59] = tested on: HL-60(TB) leukemia

Compound `Oc1c(Br)cc(Br)cc1CN(Cc1cc(Br)cc(Br)c1O)C1CCCCC1` has a TGI [1] of 59.8 µM, a TGI [2] of 36.5 µM and a TGI [3] of over 100 µM. The TGI [4] was over 100 µM, the TGI [5] was 90.9 µM and the TGI [6] was over 100 µM. The TGI [7] was over 100 µM, the TGI [8] was over 100 µM and the TGI [9] was 53 µM. It also gave a TGI [10] of 71.1 µM, a TGI [11] of over 100 µM and a TGI [12] of over 100 µM. It also gave a TGI [13] of over 100 µM, a TGI [14] of over 100 µM and a TGI [15] of over 100 µM. For the same compound, the TGI [16] was over 100 µM, the TGI [17] was 92.5 µM and the TGI [18] was 70.4 µM. It also gave a TGI [19] of 97.5 µM, a TGI [20] of over 100 µM and a TGI [21] of 61 µM. It also gave a TGI [22] of 71.9 µM, a TGI [23] of 53.8 µM and a TGI [24] of over 100 µM. It also gave a TGI [25] of over 100 µM, a TGI [26] of over 100 µM and a TGI [27] of over 100 µM. The TGI [28] was 45.4 µM, the TGI [29] was 72.7 µM and the TGI [30] was over 100 µM. For the same compound, the TGI [31] was over 100 µM, the TGI [32] was 64.8 µM and the TGI [33] was over 100 µM. The TGI [34] was over 100 µM, the TGI [35] was over 100 µM and the TGI [36] was 72.4 µM. For the same compound, the TGI [37] was over 100 µM, the TGI [38] was over 100 µM and the TGI [39] was over 100 µM. It also gave a TGI [40] of 34.6 µM, a TGI [41] of 71.5 µM and a TGI [42] of 65 µM. It also gave a TGI [43] of over 100 µM, a TGI [44] of over 100 µM and a TGI [45] of 29.2 µM. It also gave a TGI [46] of over 100 µM, a TGI [47] of over 100 µM and a TGI [48] of 50.5 µM. The TGI [49] was 45.1 µM, the TGI [50] was 74.9 µM and the TGI [51] was over 100 µM. It also gave a TGI [52] of over 100 µM, a TGI [53] of over 100 µM and a TGI [54] of over 100 µM.

`COc1ccc(C)c2c1N[C@](C)([C@]1(C)Nc3c(OC)ccc(C)c3C1=O)C2=O` showed a TGI [1] of over 100 µM, a TGI [55] of over 100 µM and a TGI [2] of over 100 µM. It also gave a TGI [3] of over 100 µM, a TGI [56] of over 100 µM and a TGI [4] of over 100 µM. For the same compound, the TGI [5] was over 100 µM, the TGI [6] was over 100 µM and the TGI [7] was over 100 µM. For the same compound, the TGI [8] was over 100 µM, the TGI [9] was over 100 µM and the TGI [10] was over 100 µM. For the same compound, the TGI [11] was over 100 µM, the TGI [12] was over 100 µM and the TGI [13] was over 100 µM. It also gave a TGI [14] of over 100 µM, a TGI [15] of over 100 µM and a TGI [16] of over 100 µM. For the same compound, the TGI [17] was over 100 µM, the TGI [18] was over 100 µM and the TGI [19] was over 100 µM. It also gave a TGI [20] of over 100 µM, a TGI [22] of over 100 µM and a TGI [23] of over 100 µM. The TGI [57] was over 100 µM, the TGI [24] was over 100 µM and the TGI [25] was over 100 µM. The TGI [26] was over 100 µM, the TGI [27] was over 100 µM and the TGI [28] was over 100 µM. For the same compound, the TGI [29] was over 100 µM, the TGI [30] was over 100 µM and the TGI [31] was over 100 µM. For the same compound, the TGI [32] was over 100 µM, the TGI [33] was over 100 µM and the TGI [34] was over 100 µM. It also gave a TGI [35] of over 100 µM, a TGI [36] of over 100 µM and a TGI [37] of over 100 µM. The TGI [38] was over 100 µM, the TGI [39] was over 100 µM and the TGI [40] was over 100 µM. For the same compound, the TGI [42] was over 100 µM, the TGI [43] was over 100 µM and the TGI [44] was over 100 µM. The TGI [45] was over 100 µM, the TGI [46] was over 100 µM and the TGI [47] was over 100 µM. It also gave a TGI [48] of over 100 µM, a TGI [49] of over 100 µM and a TGI [50] of over 100 µM. It also gave a TGI [51] of over 100 µM, a TGI [52] of over 100 µM and a TGI [58] of over 100 µM. It also gave a TGI [53] of over 100 µM and a TGI [54] of over 100 µM.

Work on `COc1cc(-c2c[nH]c3ccccc23)nc(-c2c[nH]c3ccccc23)n1` yielded a TGI [55] of 12.8 µM, a TGI [3] of 22.1 µM and a TGI [56] of 13 µM. The TGI [4] was 10.6 µM, the TGI [5] was 38.4 µM and the TGI [6] was 22.8 µM. For the same compound, the TGI [7] was 18.1 µM, the TGI [8] was 23.9 µM and the TGI [9] was 68 µM. The TGI [10] was 6.58 µM, the TGI [11] was 21 µM and the TGI [12] was 18.6 µM. The TGI [13] was 20.7 µM, the TGI [14] was 15.3 µM and the TGI [16] was 22.3 µM. The TGI [17] was 19 µM, the TGI [19] was 21 µM and the TGI [20] was 13.6 µM. The TGI [21] was 20.6 µM, the TGI [22] was 30.7 µM and the TGI [23] was 19.6 µM. For the same compound, the TGI [57] was 19.8 µM, the TGI [25] was 20.3 µM and the TGI [26] was 23.9 µM. For the same compound, the TGI [27] was 12.5 µM, the TGI [28] was 16.2 µM and the TGI [29] was 12.7 µM. For the same compound, the TGI [30] was 14.8 µM, the TGI [59] was 12.9 µM and the TGI [31] was 59.6 µM. It also gave a TGI [32] of 13.4 µM, a TGI [34] of 4.67 µM and a TGI [35] of 8.53 µM. The TGI [36] was 8 µM, the TGI [37] was 13.6 µM and the TGI [38] was 17.7 µM. The TGI [39] was 8.46 µM, the TGI [40] was 17.9 µM and the TGI [41] was 17.7 µM. The TGI [42] was 14.9 µM, the TGI [43] was 16.5 µM and the TGI [44] was 18.6 µM. For the same compound, the TGI [45] was 20.8 µM, the TGI [46] was 22.1 µM and the TGI [48] was 9.06 µM. For the same compound, the TGI [49] was 20.9 µM, the TGI [50] was 14.9 µM and the TGI [51] was 19.3 µM. It also gave a TGI [52] of 14.2 µM, a TGI [58] of 3.08 µM and a TGI [53] of 28.8 µM. The TGI [54] was 16.2 µM.

`CNC(=O)Nc1cc2c3c(c1)CCCN3CCC2` showed a TGI [1] of over 10 µM, a TGI [55] of over 10 µM and a TGI [2] of over 10 µM. It also gave a TGI [3] of over 10 µM, a TGI [56] of over 10 µM and a TGI [4] of over 10 µM. It also gave a TGI [5] of over 10 µM, a TGI [6] of over 10 µM and a TGI [8] of over 10 µM. For the same compound, the TGI [9] was over 10 µM, the TGI [10] was over 10 µM and the TGI [11] was over 10 µM. It also gave a TGI [12] of over 10 µM, a TGI [13] of over 10 µM and a TGI [15] of over 10 µM. It also gave a TGI [16] of over 10 µM, a TGI [17] of over 10 µM and a TGI [18] of over 10 µM. It also gave a TGI [19] of over 10 µM, a TGI [20] of over 10 µM and a TGI [21] of over 10 µM. For the same compound, the TGI [22] was over 10 µM, the TGI [23] was over 10 µM and the TGI [57] was over 10 µM. The TGI [24] was over 10 µM, the TGI [25] was over 10 µM and the TGI [26] was over 10 µM. The TGI [27] was over 10 µM, the TGI [28] was over 10 µM and the TGI [29] was over 10 µM. For the same compound, the TGI [30] was over 10 µM, the TGI [31] was over 10 µM and the TGI [32] was over 10 µM. The TGI [33] was over 10 µM, the TGI [34] was over 10 µM and the TGI [35] was over 10 µM. For the same compound, the TGI [36] was over 10 µM, the TGI [37] was over 10 µM and the TGI [38] was over 10 µM. For the same compound, the TGI [39] was over 10 µM, the TGI [40] was over 10 µM and the TGI [41] was over 10 µM. It also gave a TGI [42] of over 10 µM, a TGI [43] of over 10 µM and a TGI [44] of over 10 µM. For the same compound, the TGI [45] was over 10 µM, the TGI [46] was over 10 µM and the TGI [47] was over 10 µM. The TGI [48] was over 10 µM, the TGI [49] was over 10 µM and the TGI [50] was over 10 µM. It also gave a TGI [51] of over 10 µM, a TGI [52] of over 10 µM and a TGI [58] of over 10 µM. It also gave a TGI [53] of over 10 µM and a TGI [54] of over 10 µM.
